# Measurements from ChEMBL document CHEMBL4396937, “Synthesis of new triazole fused imidazo[2,1-b]thiazole hybrids with emphasis on Staphylococcus aureus virulence factors” (Bioorg Med Chem Lett, 2019).
# The source made the active and inactive calls. No cut-off for these calls is given here.
# What was measured:
# [1] = test system: Staphylococcus aureus; assay: Antibacterial activity against Staphylococcus aureus MLS-16 MTCC 2940 assessed as reduction in bacterial growth incubated for 24 hrs by agar well diffusion method; format: functional; settings: MLS-16 MTCC 2940, 24 h
# [2] = test system: Pseudomonas aeruginosa; assay: Bactericidal activity against Pseudomonas aeruginosa MTCC 2453 assessed as reduction in bacterial survival incubated for 24 hrs followed by transfer of microbial suspension to agar plates and measured at 24 hrs post transfer by agar well diffusion method; format: functional; settings: MTCC 2453, 24 h
# [3] = test system: Escherichia coli; assay: Antibacterial activity against Escherichia coli MTCC 739 assessed as reduction in bacterial growth incubated for 24 hrs by agar well diffusion method; format: functional; settings: MTCC 739, 24 h
# [4] = test system: Escherichia coli; assay: Antibiofilm activity against Escherichia coli MTCC 739 assessed as inhibition of biofilm formation by crystal violet staining-based microtitre plate assay; format: functional, organism-based
# [5] = test system: Staphylococcus aureus; assay: Bactericidal activity against Staphylococcus aureus MLS-16 MTCC 2940 assessed as reduction in bacterial survival incubated for 24 hrs followed by transfer of microbial suspension to agar plates and measured at 24 hrs post transfer by agar well diffusion method; format: functional; settings: MLS-16 MTCC 2940, 24 h
# [6] = test system: Bacillus subtilis; assay: Antibiofilm activity against Bacillus subtilis MTCC 121 assessed as inhibition of biofilm formation by crystal violet staining-based microtitre plate assay; format: functional, organism-based
# [7] = test system: Staphylococcus aureus; assay: Antibacterial activity against Staphylococcus aureus MTCC 96 assessed as reduction in bacterial growth incubated for 24 hrs by agar well diffusion method; format: functional; settings: MTCC 96, 24 h
# [8] = test system: Raoultella planticola; assay: Bactericidal activity against Klebsiella planticola MTCC 530 assessed as reduction in bacterial survival incubated for 24 hrs followed by transfer of microbial suspension to agar plates and measured at 24 hrs post transfer by agar well diffusion method; format: functional; settings: MTCC 530, 24 h
# [9] = test system: Staphylococcus aureus; assay: Bactericidal activity against Staphylococcus aureus MTCC 96 assessed as reduction in bacterial survival incubated for 24 hrs followed by transfer of microbial suspension to agar plates and measured at 24 hrs post transfer by agar well diffusion method; format: functional; settings: MTCC 96, 24 h
# [10] = test system: Staphylococcus aureus; assay: Antibiofilm activity against Staphylococcus aureus MTCC 96 assessed as inhibition of biofilm formation by crystal violet staining-based microtitre plate assay; format: functional, organism-based
# [11] = test system: Escherichia coli; assay: Bactericidal activity against Escherichia coli MTCC 739 assessed as reduction in bacterial survival incubated for 24 hrs followed by transfer of microbial suspension to agar plates and measured at 24 hrs post transfer by agar well diffusion method; format: functional; settings: MTCC 739, 24 h
# [12] = test system: Pseudomonas aeruginosa; assay: Antibacterial activity against Pseudomonas aeruginosa MTCC 2453 assessed as reduction in bacterial growth incubated for 24 hrs by agar well diffusion method; format: functional; settings: MTCC 2453, 24 h
# [13] = test system: Micrococcus luteus; assay: Antibacterial activity against Micrococcus luteus MTCC 2470 assessed as reduction in bacterial growth incubated for 24 hrs by agar well diffusion method; format: functional; settings: MTCC 2470, 24 h
# [14] = test system: Candida albicans; assay: Antifungal activity against Candida albicans MTCC 3017 assessed as reduction in fungal growth incubated for 24 hrs by agar well diffusion method; format: functional; settings: MTCC 3017, 24 h
# [15] = test system: Micrococcus luteus; assay: Bactericidal activity against Micrococcus luteus MTCC 2470 assessed as reduction in bacterial survival incubated for 24 hrs followed by transfer of microbial suspension to agar plates and measured at 24 hrs post transfer by agar well diffusion method; format: functional; settings: MTCC 2470, 24 h
# [16] = test system: Micrococcus luteus; assay: Antibiofilm activity against Micrococcus luteus MTCC 2470 assessed as inhibition of biofilm formation by crystal violet staining-based microtitre plate assay; format: functional, organism-based
# [17] = test system: Bacillus subtilis; assay: Antibacterial activity against Bacillus subtilis MTCC 121 assessed as reduction in bacterial growth incubated for 24 hrs by agar well diffusion method; format: functional; settings: MTCC 121, 24 h
# [18] = test system: Candida albicans; assay: Fungicidal activity against Candida albicans MTCC 3017 assessed as reduction in fungal survival incubated for 24 hrs followed by transfer of microbial suspension to agar plates and measured at 24 hrs post transfer by agar well diffusion method; format: functional; settings: MTCC 3017, 24 h
# [19] = test system: Raoultella planticola; assay: Antibiofilm activity against Klebsiella planticola MTCC 530 assessed as inhibition of biofilm formation by crystal violet staining-based microtitre plate assay; format: functional, organism-based
# [20] = test system: Bacillus subtilis; assay: Bactericidal activity against Bacillus subtilis MTCC 121 assessed as reduction in bacterial survival incubated for 24 hrs followed by transfer of microbial suspension to agar plates and measured at 24 hrs post transfer by agar well diffusion method; format: functional; settings: MTCC 121, 24 h
# [21] = test system: Staphylococcus aureus; assay: Antibiofilm activity against Staphylococcus aureus MLS-16 MTCC 2940 assessed as inhibition of biofilm formation by crystal violet staining-based microtitre plate assay; format: functional, organism-based
# [22] = test system: Raoultella planticola; assay: Antibacterial activity against Klebsiella planticola MTCC 530 assessed as reduction in bacterial growth incubated for 24 hrs by agar well diffusion method; format: functional; settings: MTCC 530, 24 h
# [23] = test system: Pseudomonas aeruginosa; assay: Antibiofilm activity against Pseudomonas aeruginosa MTCC 2453 assessed as inhibition of biofilm formation by crystal violet staining-based microtitre plate assay; format: functional, organism-based
# [24] = test system: MRC5; assay: Cytotoxicity against human MRC5 cells assessed as reduction in cell viability incubated for 48 hrs by MTT assay; format: cell-based; settings: MRC5, 48 h
# [25] = test system: Staphylococcus aureus; assay: Antibiofilm activity against Staphylococcus aureus MTCC 96 assessed as inhibition of biofilm formation incubated for 48 hrs in presence of Escherichia coli MTCC 739 by FE-SEM analysis; format: functional, organism-based; settings: MTCC 96, 48 h
# [26] = test system: Staphylococcus aureus; assay: Antibiofilm activity against Staphylococcus aureus MTCC 96 assessed as disruption and cell damage at bactericidal MBC incubated for 48 hrs by FE-SEM analysis; format: functional, organism-based
# [27] = test system: Escherichia coli; assay: Antibiofilm activity against Escherichia coli MTCC 739 assessed as inhibition of biofilm formation incubated for 48 hrs in presence of Staphylococcus aureus MTCC 96 by FE-SEM analysis; format: functional, organism-based; settings: MTCC 739, 48 h
# [28] = test system: Staphylococcus aureus; assay: Antibiofilm activity against Staphylococcus aureus MTCC 96 assessed as disruption of biofilm matrix with individual cell lysis at bactericidal MBC incubated for 48 hrs in presence of Escherichia coli MTCC 739 by FE-SEM analysis; format: functional, organism-based
# [29] = test system: Escherichia coli; assay: Antibiofilm activity against Escherichia coli MTCC 739 assessed as disruption of biofilm matrix with individual cell lysis at bactericidal MBC incubated for 48 hrs in presence of Staphylococcus aureus MTCC 96 by FE-SEM analysis; format: functional, organism-based
# [30] = test system: Escherichia coli; assay: Antibiofilm activity against Escherichia coli MTCC 739 assessed as cell lysis with damaged membrane at bactericidal MBC incubated for 48 hrs by FE-SEM analysis; format: functional, organism-based
MIC [1] [µg/mL],MIC [3] [µg/mL],IC50 [4] [µg/mL],IC50 [6] [µg/mL],MIC [7] [µg/mL],IC50 [10] [µg/mL],MIC [12] [µg/mL],MIC [13] [µg/mL],MIC [14] [µg/mL],IC50 [16] [µg/mL],MIC [17] [µg/mL],Structure (SMILES),MBC [2] [µg/mL],MBC [5] [µg/mL],MBC [8] [µg/mL],MBC [9] [µg/mL],MBC [11] [µg/mL],MBC [15] [µg/mL],MFC [18] [µg/mL],IC50 [19] [µg/mL],MBC [20] [µg/mL],further results
7.8,3.9,14,13.2,3.9,18.4,3.9,3.9,7.8,13.7,3.9,O=C(c1cn(-c2ccc(Cl)cc2)nn1)c1c(-c2ccc(Cl)cc2)nc2sccn12,7.8,15.6,7.8,7.8,7.8,7.8,15.6,16.8,7.8,IC50 [21]: 11.9 µg/mL; MIC [22]: 3.9 µg/mL; IC50 [23]: 19.3 µg/mL; IC50 [24]: 24.2 µg/mL
3.9,3.9,20.2,16,3.9,21.8,3.9,7.8,7.8,13.9,3.9,O=C(c1cn(-c2ccc(Br)cc2)nn1)c1c(-c2ccccc2)nc2sccn12,7.8,7.8,7.8,7.8,7.8,15.6,15.6,21.1,7.8,IC50 [21]: 14.4 µg/mL; MIC [22]: 3.9 µg/mL; IC50 [23]: 20.2 µg/mL; IC50 [24]: 28.1 µg/mL
1.9,1.9,10.3,11.4,1.9,9.8,3.9,3.9,7.8,11.2,3.9,O=C(c1cn(-c2ccc(Cl)cc2)nn1)c1c(-c2ccccc2)nc2sccn12,7.8,3.9,7.8,3.9,3.9,7.8,15.6,14.6,7.8,IC50 [25]: 14.3 µg/mL; Activity [26]: Active; IC50 [27]: 14.3 µg/mL; Activity [28]: Active; Activity [29]: Active; IC50 [21]: 10.6 µg/mL; MIC [22]: 3.9 µg/mL; Activity [30]: Active; IC50 [23]: 14.2 µg/mL; IC50 [24]: 36.1 µg/mL
